Assay: mn = molality of the nth substance listed, in mol/kg
Details: 101 kPa, Liquid, Alternating current cell with electrodes

O=[N+]([O-])[O-].O=[N+]([O-])[O-].O=[N+]([O-])[O-].[Al+3] [aluminum trinitrate] + O
electrical conductivity [S/m]
Details | 278.1 K | 283.1 K | 298.15 K | 308.15 K | 318.15 K | 343.15 K | 363.15 K
m1 = 8.8e-05 | – | – | – | – | – | 0.09049 | 0.1042
m1 = 0.000883 | 0.05671 | 0.06384 | 0.08484 | 0.09898 | 0.1135 | 0.1533 | 0.1872
m1 = 0.00871 | 0.2168 | 0.2457 | 0.3424 | 0.411 | 0.4827 | 0.6932 | 0.8941
m1 = 0.0881 | 1.551 | 1.706 | 2.378 | 2.873 | 3.387 | 4.867 | 5.923
m1 = 0.158 | 2.511 | 2.826 | 3.913 | 4.788 | 5.595 | 7.689 | 9.698

O=S(=O)([O-])O.[K+] [hydrogen potassium sulfate] + O
electrical conductivity [S/m]
Details | 278.15 K | 283.15 K | 298.15 K | 308.15 K | 318.15 K | 343.15 K | 363.15 K
m1 = 0.000161 | 0.006027 | 0.006684 | 0.008772 | 0.01017 | 0.01154 | 0.01478 | 0.01675
m1 = 0.000981 | 0.03588 | 0.03981 | 0.05156 | 0.05895 | 0.06564 | 0.07958 | 0.0854
m1 = 0.01608 | 0.4635 | 0.5067 | 0.623 | 0.6784 | 0.7238 | 0.7958 | 0.8195
m1 = 0.09815 | 2.141 | 2.318 | 2.791 | 2.998 | 3.157 | 3.469 | 3.665
m1 = 0.2291 | 4.379 | 4.728 | 5.71 | 6.137 | 6.456 | 7.159 | 7.699
